The text below walks through data of patent publication US20050148838A1, “Pharmaceutical discovery and development” (priority 2002, published 2005).

One series can be described thus: EC-MS oxidation with co-injected glutathione (Phase II type conjugation of EC-generated electrophiles).
Settings: not given
As for `Cc1cc(C(C)(C)C)c(O)c(C(C)(C)C)c1` [BHT], the “glutathionyl addition products formed on EC oxidation” value is given as “mono-glutathionyl addition product”.

Another series is described as follows: Coulometric EC-MS (voltammetric mass spectrometry), Phase I type EC oxidation. Particulars: per product ion. The format is physicochemical. From the text: Referring to FIG. 1A, a Model 1100 LC/MSD single quadrupole mass spectrometer 10 (Agilent Technologies, Palo Alto, Calif., USA) was used in combination with a Coulochem® III ECD 12 and Model 5021 coulometric cell 14 (ESA Inc., Chelmsford, Mass., USA).
Compounds are characterized via automated sequences, in which EC potential is changed from, e.g., 0-1200 mV(vs. Pd) in increments of, e.g., 200 mV. EC current and MS ion abundance at specific mass-to-charge ratios (m/z) is monitored. In accordance with the present invention, EC (e.g., coulometric, or amperometric) and reaction product profiles for various drug candidates can be obtained reproducibly. Peak area for parent compounds is inversely proportional to EC response with concomitant formation of reaction products.
Turning to `CN(C)CCCN1c2ccccc2CCc2ccccc21` [Imipramine], the “E½ (½ wave potential for product formation)” value came out at 650 mV vs. Pd.
Same read-out and setting: under `COc1c(O)ccc2c1CC[C@@H]1[C@@H]2CC[C@]2(C)[C@@H](O)CC[C@@H]12` [4-Methoxyestradiol] stands 450 mV vs. Pd.
Still for that read-out and setting: under `CC(C)NCC(O)COc1cccc2ccccc12` (stereo not shown) [Propranolol] stands 1000 mV vs. Pd.
Same read-out and setting: under `COc1cc2c(cc1O)CC[C@@H]1[C@@H]2CC[C@]2(C)[C@@H](O)CC[C@@H]12` [2-Methoxyestradiol] stands 450 mV vs. Pd; under `N[C@@H](CCS)C(=O)O` [Homocysteine], 1100 mV vs. Pd; under `C[C@]12CC[C@@H]3c4cc(O)c(O)cc4CC[C@H]3[C@@H]1CC[C@@H]2O` [2-Hydroxyestradiol], 250 mV vs. Pd.
For `C[C@]12CC[C@@H]3c4ccc(O)c(O)c4CC[C@H]3[C@@H]1CC[C@@H]2O` [4-Hydroxyestradiol], the “E½ (½ wave potential for product formation)” value is reported as 250 mV vs. Pd.
Still for that read-out and setting: with `CCCCN1C[C@H](O)[C@@H](O)[C@H](O)[C@H]1CO` [N-butyldeoxynojirimycin] the figure was 1000 mV vs. Pd.
The same measure, in the same setting: under `CSCC[C@H](N)C(=O)O` [Methionine] stands 1100 mV vs. Pd.
